From US10449245B2 (priority 2014, dated 2019)
Several values for one entry are separate records, joined by “and”; a condition that tells them apart may be missing. Equal entries are not always repeated.

Test system: Histone H3 acetylation in lymphocytes
Assay: Lymphocyte histone H3 acetylation by flow cytometry, REDUC clinical trial Part A
Type: in vivo, human
Set-up: key to Histone Acetylation, Mean: MFI, background (isotype control) MFI subtracted
Details: for Histone Acetylation (anti-acetyl histone H3 MFI in lymphocytes): individual subjects 1101, 1102, 1103, 1105, 1106, 1107 = c1-c6; for Histone Acetylation (anti-acetyl histone H3 MFI in lymphocytes) / Histone Acetylation, Mean: romidepsin 5 mg/m^2 i.v. days 0, 7, 14; for Histone Acetylation, Mean: mean of subjects
Procedure: Part A of the clinical study contained three phases. First, a pre-treatment phase of 2-4 weeks (visit 1-visit 2a) to confirm the stability of the latent HIV-1 reservoir and determine baseline HIV-1 T lymphocyte specific immunity. Second, a viral reactivation phase of 3 weeks (visit 2 to visit 7) consisting of one cycle of romidepsin infusions at a dosing of 5 mg/m^2 administered intravenously over a 4 hour period. De-escalation down to 2.5 mg/m^2 was planned in case of dose-limiting toxicity was observed. Romidepsin was infused on days 0, 7, and 14. Third, a post-activation phase of ˜9 weeks (visit 8 to visit 11) to assess the effect of romidepsin on the size of latent HIV-1I reservoir.
Histone H3 acetylation was measured in lymphocytes using flow cytometry with intracellular cytokine staining on fresh isolated PBMCs. Freshly isolated PBMC's were fixated, permeabilised and stained with acetylation-specific antibodies, providing the possibility to evaluate epigenetic modifications on Histones (Rigby L, Muscat A, Ashley D, Algar E. Epigenetics 2012; 7(8):875-882). Briefly, PBMCs (1×10^6) were resuspended in 3 ml ice-cold PBS/1% FBS and centrifuged, then vortexed to dissolve pellet and fixative added, 100 μl 2% PFA (ice-cold), vortexed briefly and incubated on ice for 15 min. Cells were then washed in 4 ml PBS, resuspend in 200 μl PBS and stored at 4° C. until staining. Samples were washed with 3 ml FACS buffer and vortexed to dissolve cell pellet prior to adding 100 μl 0.2% Triton X-100, vortex briefly and incubate for 10 min. at room temperature (RT). Samples were then washed with FACS buffer, 600 μl Block (PBS/10% FBS) was added, sample vortexed to resuspend cell pellet and incubate for 20 min at RT. After washing with 3 ml FACS buffer 5 μl primary antibody Anti-acetyl histone H3 (rabbit) at 200 μg/ml (Merck Millipore) or isotype control at 200 μg/ml (normal rabbit serum, LifeTechnologie) was added, and samples vortexed to resuspend cell pellet, and incubated for 1 hour at RT. Following this samples […]), vortexed to resuspend cell pellet and incubated for 1 hour in the dark (RT). Finall samples were washed with FACS buffer and resuspended in 80 μl PBS and analyzed by FACS (50 000 events, anti-acetyl histone H3 Median Fluorescence Intensity, MFI, calculated by subtracting background MFI from isotype control).

[1] = visit 2A (day 0, pre-treatment)

For `C/C=C1\NC(=O)[C@H]2CSSCC/C=C/[C@H](CC(=O)N[C@H](C(C)C)C(=O)N2)OC(=O)[C@H](C(C)C)NC1=O` [romidepsin, (1S,4S,7Z,10S,16E,21R)-7-ethylidene-4,21-bis(1-methylethyl)-2-oxa-12,13-dithia-5,8,20,23-tetraazabicyclo[8.7.6]tricos-16-ene-3,6,9,19,22-pentone], the “Lymphocyte histone H3 acetylation, maximum fold range relative to baseline” value (following each romidepsin administration, 5 mg/m^2) was 3.7-7.7 fold, the “Histone Acetylation (anti-acetyl histone H3 MFI in lymphocytes)” value [1] was 1181 and 1258 and 562 and 1020 and 309 and 372 and the “Histone Acetylation, Mean” value [1] was 783.6667. For the same molecule, the “Histone Acetylation (anti-acetyl histone H3 MFI in lymphocytes)” value (visit 2B (day 0 + 4 h)) was 3493 and 1534 and 3481 and 2473 and 2360 and 2463, the “Histone Acetylation, Mean” value (visit 2B (day 0 + 4 h)) was 2634 and the “Histone Acetylation (anti-acetyl histone H3 MFI in lymphocytes)” value (visit 3 (day 1)) was 3465 and 2197 and 2451 and 2216 and 2475 and 1757. The “Histone Acetylation, Mean” value (visit 3 (day 1)) was 2426.833, the “Histone Acetylation (anti-acetyl histone H3 MFI in lymphocytes)” value (visit 4 (day 3)) was 3102 and 2964 and 3201 and 4130 and 3302 and 2767 and the “Histone Acetylation, Mean” value (visit 4 (day 3)) was 3244.333. For the same molecule, the “Histone Acetylation (anti-acetyl histone H3 MFI in lymphocytes)” value (visit 5A (day 7)) was 2065 and 2740 and 1284 and 2042 and 2863 and 596, the “Histone Acetylation, Mean” value (visit 5A (day 7)) was 1931.667 and the “Histone Acetylation (anti-acetyl histone H3 MFI in lymphocytes)” value (visit 5B (day 7 + 4 h)) was 5363 and 4597 and 4059 and 3198 and 4239 and 2214. The “Histone Acetylation, Mean” value (visit 5B (day 7 + 4 h)) was 3945, the “Histone Acetylation (anti-acetyl histone H3 MFI in lymphocytes)” value (visit 6 (day 10)) was 2788 and 4124 and 3402 and 3859 and 3748 and 3280 and the “Histone Acetylation, Mean” value (visit 6 (day 10)) was 3533.5. The “Histone Acetylation (anti-acetyl histone H3 MFI in lymphocytes)” value (visit 7A (day 14)) was 2486 and 3236 and 1789 and 1794 and 1438 and 1211, the “Histone Acetylation, Mean” value (visit 7A (day 14)) was 1992.333 and the “Histone Acetylation (anti-acetyl histone H3 MFI in lymphocytes)” value (visit 7B (day 14 + 4 h)) was 7228 and 3580 and 3317 and 4101 and 5467 and 3444. For the same molecule, the “Histone Acetylation, Mean” value (visit 7B (day 14 + 4 h)) was 4522.833, the “Histone Acetylation (anti-acetyl histone H3 MFI in lymphocytes)” value (visit 8 (day 17)) was 3875 and 4502 and 3147 and 3675 and 3572 and the “Histone Acetylation, Mean” value (visit 8 (day 17)) was 3754.2. The “Histone Acetylation (anti-acetyl histone H3 MFI in lymphocytes)” value (visit 9 (day 21)) was 741 and 2416 and 1607 and 1923 and 1179 and 2467, the “Histone Acetylation, Mean” value (visit 9 (day 21)) was 1722.167 and the “Histone Acetylation (anti-acetyl histone H3 MFI in lymphocytes)” value (visit 10 (day 56)) was 1733 and 3579 and 2622 and 3035 and 1592 and 1865. For the same molecule, the “Histone Acetylation, Mean” value (visit 10 (day 56)) was 2404.333, the “Histone Acetylation (anti-acetyl histone H3 MFI in lymphocytes)” value (visit 11 (day 84)) was 1243 and 1823 and 1292 and 1287 and 1059 and 970 and the “Histone Acetylation, Mean” value (visit 11 (day 84)) was 1279.
